Each structure is given as a SMILES string. Counter-ions that a name gives are not always drawn. Where only a bound is given, the exact number is not on record here.

In one assay the target is T1, GAβ-dependent amyloid fibril formation (Human Aβ1-40 + GM1-containing liposome) (Homo sapiens, UniProt P05067).
T1 construct: Human Aβ1-40 (cat. #4307-v, prepared by Peptide Institute); purchased Peptide Institute 4307-v
T1 sequence (P05067 672-711 limits assumed): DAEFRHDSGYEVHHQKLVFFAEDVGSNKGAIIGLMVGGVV
The experiment in a line: Thioflavin T (ThT) assay of GAβ-dependent amyloid fibril formation (Aβ1-40 with GM1-containing liposome). In kind it is biochemical. The following applies: @5 μM; read-out: ThT Inhibitory activity (% inhibition). How it is done:
<3. Evaluation of the Compounds Based on the Inhibitory Activity Against Amyloid Fibril Formation in Thioflabin T (ThT) Assay>
Inhibitory activity against GAβ-dependent amyloid fibril formation of the above compounds 1 to 133 and 142 to 267 were evaluated in ThT assay.
(1) Preparation of Aβ Solution
Human Aβ1-40 (cat. #4307-v, prepared by Peptide Institute) was dissolved in a 0.02% ammonia solution (400 μM), and the mixture was treated in an ultracentrifuge (S110AT rotor, Hitachi) at 100,000 rpm for 3 hours. Approximately two-thirds of the upper layer of the supernatant was recovered and protein concentration was measured. The Aβ solution was aliquoted and stored at −80° C. until use, was melted immediately before use, and was diluted to 75 μM using phosphate buffer (PBS: cat. #10010, manufactured by Life Technologies).
(2) Preparation of GM1-Containing Liposome
Using a mixed solution of chloroform/methanol (1:1) as a solvent, a mixed solution of 100 mM each of cholesterol and sphingomyelin (both manufactured by Sigma-Aldrich) was prepared. To this mixed solution, GM 1 (cat. #1061, manufactured by Matreya Co.) was dissolved to make a solution of 50 mM concentration. This lipid mixed solution was aliquoted into glass test tubes and stored at −20° C. until use, was melted before use, was mixed with chloroform/methanol mixture (1:1) and mixed, and then the solvent was removed by applying nitrogen gas to the suspension. The dried lipid mixture was resuspended in PBS to be a GM1 concentration of 2.5 mM, and frozen and thawed 5 times with liquid nitrogen. The lipid suspension was centrifuged at 15,000 rpm for 10 minutes and the precipitate was resuspended in PBS to be a GM1 concentration of 2.5 mM. Using an ultrasonic crusher (XL-2000, MISONIX Co., Ltd.) equipped with a microchip, ultrasonic treatment was repeated on ice for 10 seconds until the suspension became transparent, and GM1-containing liposome was prepared. Immediately prior to use, PBS was added and diluted to a GM 1 concentration of 75 μM.
(3) Preparation of Compound Solution
Compounds 1 to 133 and 142 to 267 were prepared as 10 mM and 2 mM solution in DMSO, respectively. And each solution was diluted to 75 μM or 15 μM with PBS immediately prior to use.
(4) GAβ-Dependent Amyloid Fibril Formation
To a 96-well microplate, 5 μl each of the 75 μM Aβ solution prepared above (1), the compound solution prepared in (3) or 0.75% DMSO was mixed and incubated at room temperature for 10 minutes. Then, 5 μl each of 750 μM GM1-containing liposome prepared in (2) was added to each well and incubated at 37° C. for 18 hours.
ThT (manufactured by Sigma-Aldrich) was adjusted to 5 μM using 50 mM glycine-NaOH buffer (pH 8.5). Immediately before measurement, 10 μl from each well of (4) was transferred to a 96-well black plate. 50 μl of 5 μM ThT solution was added from each injector to each well using a multi-plate reader (ARVO-HTS, manufactured by Perkin Elmer), and then the optimal fluorescence of ThT bound to amyloid fiber (excitation wavelength 430 nm, fluorescence wavelength 490 nm) was measured.
The fluorescence intensity of ThT indicates the degree of amyloid fibrils formation. By calculating the ratio of the ThT fluorescence intensity between addition of the compound and without addition of the compound, the inhibition rate against amyloid fibril formation by the compound was calculated.
Take `NC(Cc1c[nH]c2ccccc12)c1nc(-c2ccc3c(c2)OC(F)(F)O3)no1` (stereo not shown) [Compound 40, 1-{3-(2,2-difluorobenzo[d] [1,3]dioxol-5-yl)-1,2,4-oxadiazol-5-yl}-2-(1H-indol-3-yl)ethan-1-amine]: the inhibition at 5 µM was found to be 38%.

The same assay, now with this note: @25 μM; read-out: ThT Inhibitory activity (% inhibition).
On to `O=C(N[C@@H](CO)c1nc(-c2cccc(C(F)(F)F)c2)no1)c1ccc(F)c(Cl)c1` [Compound 242, 3-chloro-4-fluoro-N-[(1S)-2-hydroxy-1-{3-[3-(trifluoromethyl)phenyl]-1,2,4-oxadiazol-5-yl}ethyl]benzamide], for which the inhibition at 25 µM was determined as 59%. Take `NC(Cc1c[nH]c2ccccc12)c1nc(-c2ccc3c(c2)OC(F)(F)O3)no1` (stereo not shown) [Compound 40, 1-{3-(2,2-difluorobenzo[d] [1,3]dioxol-5-yl)-1,2,4-oxadiazol-5-yl}-2-(1H-indol-3-yl)ethan-1-amine]: the inhibition at 25 µM turned out to be 80%. Regarding `O=C(N[C@@H](CO)c1nc(-c2ccc(F)cc2)no1)c1ccc(F)cc1` [Compound 172, 4-fluoro-N-[(1S)-1-[3-(4-fluorophenyl)-1,2,4-oxadiazol-5-yl]-2-hydroxyethyl] benzamide], the inhibition at 25 µM stood at 91%.

Staying with this assay, now noted: inhibition rate against amyloid fibril formation, final concentration of the compound 25 μM; read-out: Inhibitory activity ABC evaluation.
Consider `O=C(N[C@@H](CO)c1nc(-c2cccc(C(F)(F)F)c2)no1)c1ccc(F)c(Cl)c1` [Compound 242, 3-chloro-4-fluoro-N-[(1S)-2-hydroxy-1-{3-[3-(trifluoromethyl)phenyl]-1,2,4-oxadiazol-5-yl}ethyl]benzamide], for which the inhibition at 25 µM lay within 40 to 80%.

As for `CCOCCOc1ccc(C(=O)N[C@@H](CO)c2nc(-c3ccc(C(F)(F)F)cc3)no2)cc1` [Compound 170], the inhibition at 25 µM lay within 40 to 80%.

For `O=C(c1ccc(Cl)cc1)N1CC(O)CC1c1nc(-c2ccc(OC(F)(F)F)cc2)no1` (stereo in doubt) [Compound 85, (4-chlorophenyl) ((2S,4S)-4-hydroxy-2-[3-{4-(trifluoromethoxy)phenyl}-1,2,4-oxadiazol-5-yl]pyrrolidin-1-yl)methanone], the inhibition at 25 µM was 40 to 80%. For `N[C@@H](Cc1c[nH]c2ccccc12)c1nnc(-c2ccc(OC(F)(F)F)cc2)o1` [Compound 110, (S)-2-(1H-indol-3-yl)-1-(5-(4-(trifluoro-methoxy)phenyl)-1,3,4-oxadiazol-2-yl) ethan-1-amine hydrochloride], the inhibition at 25 µM lay within 40 to 80%. Take `O=C(N[C@@H](CO)c1nc(-c2ccc(OC(F)(F)F)cc2)no1)c1cccc(F)c1` [Compound 94, (S)-3-fluoro-N-(2-hydroxy-1-[3-{4-(trifluoromethoxy)phenyl}-1,2,4-oxadiazol-5-yl]ethyl)benzamide]: the inhibition at 25 µM is more than 80%. For `O=C1CC(c2nc(-c3ccc(OC(F)F)cc3)no2)CN1c1ccc(Cl)cc1` (stereo not shown) [Compound 52, 1-(4-chlorophenyl)-4-[3-{4-(difluoro-methoxy)phenyl}-1,2,4-oxadiazol-5-yl]pyrrolidin-2-one], the inhibition at 25 µM fell in the range of 40 to 80%.

Regarding `COc1ccc(-c2noc([C@H](CO)NC(=O)c3ccccc3)n2)cc1F` [Compound 144, N-[(1S)-1-[3-(3-fluoro-4-methoxyphenyl)-1,2,4-oxadiazol-5-yl]-2-hydroxyethyl]benzamide], the inhibition at 25 µM is more than 80%.

In the case of `O=C(N[C@@H](CO)c1nc(-c2ccc(C(F)(F)F)cc2)no1)c1cn2ccccc2n1` [Compound 240, N-[(1S)-2-hydroxy-1-{3-[4-(trifluoromethyl)phenyl]-1,2,4-oxadiazol-5-yl}ethyl]imidazo[1,2-a]pyridine-2-carboxamide], the inhibition at 25 µM is less than 40%.

Turning to `CN(C(=O)CCc1nc(-c2ccc(O)cc2)no1)c1cccc(Cl)c1` [Compound 13, N-(3-chloropbenyl)-3-{3-(4-hydroxyphenyl)-1,2,4-oxadiazol-5-yl}-N-methylpropanamide], the inhibition at 25 µM lay within 40 to 80%.

Take `O=C1CC(CO)(c2nc(-c3ccc(O)c(F)c3)no2)CN1c1ccc(Cl)cc1` (stereo not shown) [Compound 90, 1-(4-chlorophenyl)-4-{3-(3-fluoro-4-hydroxyphenyl)-1,2,4-oxadiazol-5-yl}-4-(hydroxy-methyl)pyrrolidin-2-one]: the inhibition at 25 µM lay in the range of 40 to 80%. With `O=C1CC(c2nc(-c3ccc(OC(F)(F)F)cc3)no2)CN1c1ccc(Cl)cc1` (stereo not drawn) [Compound 23, l-(4-chlorophenyl)-4-[3-{4-(trifluoromethoxy)phenyl}-1,2,4-oxadiazol-5-yl]pyrrolidin-2-one], the inhibition at 25 µM is 40 to 80%. On to `O=C(c1ccc(Cl)cc1)N(CCO)[C@@H](CO)c1nc(-c2ccc(OC(F)(F)F)cc2)no1` [Compound 96, (S)-4-chloro-N-(2-hydroxy-1-{3-[4-(trifluoromethoxy)phenyl]-1,2,4-oxadiazol-5-yl}ethyl)-N-(2-hydroxyethyl)benzamide], for which the inhibition at 25 µM was 40 to 80%.

In the case of `O=C(N[C@@H](CO)c1nc(-c2cc3cc(F)ccc3[nH]2)no1)c1ccc(F)cc1` [Compound 267, 4-fluoro-N-[(1S)-1-[3-(5-fluoro-1H-indol-2-yl)-1,2,4-oxadiazol-5-yl]-2-hydroxyethyl] benzamide], the inhibition at 25 µM was more than 80%.

For the compound `O=C(NC(CO)(CO)c1nc(-c2ccc(OC(F)(F)F)cc2)no1)c1ccc(Cl)cc1` [Compound 102, 4-chloro-N-(1,3-dihydroxy-2-{3-[4-(trifluoromethoxy)phenyl]-1,2,4-oxadiazol-5-yl}propan-2-yl)benzamide], the inhibition at 25 µM lay within 40 to 80%.

On to `O=C(NC1(c2nc(-c3ccc(OC(F)(F)F)cc3)no2)CCCC1)c1ccc(Cl)cc1` [Compound 29, 4-chloro-N-(1-[3-{4-(trifluoromethoxy)phenyl}-1,2,4-oxadiazol-5-yl]cyclopentyl) benzamide], for which the inhibition at 25 µM was less than 40%. Regarding `O=C(N[C@@H](CO)c1nc(-c2cc3ccccc3[nH]2)no1)c1ccc(F)cc1` [Compound 266, 4-fluoro-N-[(1S)-2-hydroxy-1-[3-(1H-indol-2-yl)-1,2,4-oxadiazol-5-yl]ethyl] benzamide], the inhibition at 25 µM was more than 80%.

In the case of `OC[C@H](NC(=S)Nc1ccc(Cl)cc1)c1nc(-c2ccc(OC(F)(F)F)cc2)no1` [Compound 97, (S)-1-(4-chloro-phenyl)-3-(2-hydroxy-1-[3-{4-(trifluoromethoxy)phenyl}-1,2,4-oxadiazol-5-yl]ethyl)thiourea], the inhibition at 25 µM lay within 40 to 80%.

Take `O=C(N[C@@H](CO)c1nc(-c2nccc3ccccc23)no1)c1ccc(F)cc1` [Compound 226, 4-fluoro-N-[(1S)-2-hydroxy-1-[3-(isoquinolin-1-yl)-1,2,4-oxadiazol-5-yl]ethyl]benzamide]: the inhibition at 25 µM fell in the range of 40 to 80%. On the same count and under the same terms, in the case of `O=C1CC(c2nc(-c3ccc(OC(F)(F)F)cc3)no2)CN1c1ccc(Cl)nc1` (stereo not shown) [Compound 48, 1-(6-chloropyridin-3-yl)-4-[3-{4-(trifluoro-methoxy)phenyl}-1,2,4-oxadiazol-5-yl] pyrrolidin-2-one] it was 40 to 80%; in that of `NCC(NC(=O)c1ccc(Cl)cc1)c1nnc(-c2ccc(OC(F)(F)F)cc2)o1` (stereo not shown) [Compound 116, N-(2-amino-1-{5-[4-(trifluoromethoxy)phenyl]-1,3,4-oxadiazol-2-yl}ethyl)-4-chlorobenzamide], more than 80%. As for `NC(Cc1c[nH]c2ccccc12)c1nc(-c2ccc3c(c2)OC(F)(F)O3)no1` (stereo not shown) [Compound 40, 1-{3-(2,2-difluorobenzo[d] [1,3]dioxol-5-yl)-1,2,4-oxadiazol-5-yl}-2-(1H-indol-3-yl)ethan-1-amine], the inhibition at 25 µM was more than 80%.

Take `CN(Cc1ccccc1)C(=O)CCc1nc(-c2ccc3c(c2)OCCO3)no1` [Compound 16, N-benzyl-3-{3-(2,3-dihydrobenzo[b][1,4]dioxin-6-yl)-1,2,4-oxadiazol-5-yl}-N-methylpropanamide]: the inhibition at 25 µM is less than 40%.

`O=C1CC(c2nc(-c3cccc(OC(F)(F)F)c3)no2)CN1c1ccc(Cl)cc1` (stereo not shown) [Compound 33]: the inhibition at 25 µM is 40 to 80%. `O=C(c1ccc(Cl)cc1)N1CCC[C@H]1c1nc(-c2ccc(OC(F)(F)F)cc2)no1` [Compound 55, (S)-(4-chlorophenyl) (2-[3-{4-(trifluoro-methoxy)phenyl)-1,2,4-oxadiazol-5-yl}pyrrolidin-1-yl)methanone]: the inhibition at 25 µM is 40 to 80%.

For the compound `CS(=O)(=O)Nc1ccc(-c2nnc([C@@H](N)Cc3c[nH]c4ccccc34)o2)cc1` [Compound 111, (S)-N-(4-(5-(1-amino-2-(1H-indol-3-yl)ethyl)-1,3,4-oxadiazol-2-yl)phenyl) methane-sulfonamide hydrochloride], the inhibition at 25 µM is less than 40%.

With `O=C(N[C@@H](CO)c1nc(-c2ccc(F)cc2)no1)c1ccc(F)cc1` [Compound 172, 4-fluoro-N-[(1S)-1-[3-(4-fluorophenyl)-1,2,4-oxadiazol-5-yl]-2-hydroxyethyl] benzamide], the inhibition at 25 µM was more than 80%. `O=C(N[C@@H](CO)c1nc(-c2cccc(C(F)(F)F)c2)no1)c1ccc(N2CCOCC2)cc1` [Compound 220]: the inhibition at 25 µM is more than 80%.
